What is called MIC is the least concentration at which growth counts as inhibited. A higher MIC goes with a less susceptible organism.

≈ marks a conversion by molar mass, not a printed value.

The values below come from ChEMBL document CHEMBL1649584, “Overexpression of the naturally occurring blaOXA-51 gene in Acinetobacter baumannii mediated by novel insertion sequence ISAba9” (2009).

Holding throughout (format): functional
The subject of assay [1] is Acinetobacter baumannii. The experiment in a line: Antimicrobial activity against Acinetobacter baumannii isolate Ab3 overexpressing beta-lactamase OXA-51 gene mediated by novel insertion sequence ISAba9.
For assay [2], the system named is Acinetobacter baumannii. The experiment in a line: Antimicrobial activity against Acinetobacter baumannii isolate Ab2 overexpressing beta-lactamase OXA-51 gene mediated by novel insertion sequence ISAba9.
Assay [3] deals with Acinetobacter baumannii. In words: Antimicrobial activity against Acinetobacter baumannii isolate Ab168 overexpressing beta-lactamase OXA-51 gene mediated by novel insertion sequence ISAba9.
The subject of assay [4] is Acinetobacter baumannii. The experiment in a line: Antimicrobial activity against Acinetobacter baumannii isolate Ab108 overexpressing beta-lactamase OXA-51 gene mediated by novel insertion sequence ISAba9.
The test system of assay [5] is Acinetobacter baumannii. The experiment in a line: Antimicrobial activity against Acinetobacter baumannii isolate Ab177 overexpressing beta-lactamase OXA-51 gene mediated by novel insertion sequence ISAba9.
Assay [6] relates to Acinetobacter baumannii. In words: Antimicrobial activity against Acinetobacter baumannii isolate Ab91 overexpressing beta-lactamase OXA-51 gene mediated by novel insertion sequence ISAba9.
The test system of assay [7] is Acinetobacter baumannii. The experiment in a line: Antimicrobial activity against Acinetobacter baumannii isolate Ab185 overexpressing beta-lactamase OXA-51 gene mediated by novel insertion sequence ISAba9.
Assay [8] deals with Acinetobacter baumannii. In words: Antimicrobial activity against Acinetobacter baumannii isolate Ab181 overexpressing beta-lactamase OXA-51 gene mediated by novel insertion sequence ISAba9.
Assay [9] concerns Acinetobacter baumannii. The experiment in a line: Antimicrobial activity against Acinetobacter baumannii isolate Ab150 overexpressing beta-lactamase OXA-51 gene mediated by novel insertion sequence ISAba9.
Assay [10] concerns Acinetobacter baumannii. The experiment in a line: Antimicrobial activity against Acinetobacter baumannii isolate Ab153 overexpressing beta-lactamase OXA-51 gene mediated by novel insertion sequence ISAba9.
Assay [11] relates to Acinetobacter baumannii. In words: Antimicrobial activity against Acinetobacter baumannii isolate Ab33 overexpressing beta-lactamase OXA-51 gene mediated by novel insertion sequence ISAba9.
Assay [12] deals with Acinetobacter baumannii. In words: Antimicrobial activity against Acinetobacter baumannii isolate Ab11 overexpressing beta-lactamase OXA-51 gene mediated by novel insertion sequence ISAba9.
In assay [13] the test system is Acinetobacter baumannii. The experiment in a line: Antimicrobial activity against Acinetobacter baumannii isolate Ab133 overexpressing beta-lactamase OXA-51 gene mediated by novel insertion sequence ISAba9.
The subject of assay [14] is Acinetobacter baumannii. In words: Antimicrobial activity against Acinetobacter baumannii isolate Ab12 overexpressing beta-lactamase OXA-51 gene mediated by novel insertion sequence ISAba9.
In assay [15] the test system is Acinetobacter baumannii. The experiment in a line: Antimicrobial activity against Acinetobacter baumannii isolate Ab30 overexpressing beta-lactamase OXA-51 gene mediated by novel insertion sequence ISAba9.
In assay [16] the test system is Acinetobacter baumannii. The experiment in a line: Antimicrobial activity against Acinetobacter baumannii isolate Ab23 overexpressing beta-lactamase OXA-51 gene mediated by novel insertion sequence ISAba9.
The subject of assay [17] is Acinetobacter baumannii. In words: Antimicrobial activity against Acinetobacter baumannii isolate Ab58 overexpressing beta-lactamase OXA-51 gene mediated by novel insertion sequence ISAba9.
Assay [18] has as its system Acinetobacter baumannii. In words: Antimicrobial activity against Acinetobacter baumannii isolate Ab114 overexpressing beta-lactamase OXA-51 gene mediated by novel insertion sequence ISAba9.
Assay [19] relates to Acinetobacter baumannii. In words: Antimicrobial activity against Acinetobacter baumannii isolate Ab63 overexpressing beta-lactamase OXA-51 gene mediated by novel insertion sequence ISAba9.
The test system of assay [20] is Acinetobacter baumannii. The experiment in a line: Antimicrobial activity against Acinetobacter baumannii isolate Ab5 overexpressing beta-lactamase OXA-51 gene mediated by novel insertion sequence ISAba9.

Take `C[C@@H](O)[C@H]1C(=O)N2C(C(=O)O)=C(SCCNC=N)C[C@H]12` [IMIPENEM ANHYDROUS]: the MIC is 8 µg/mL (≈ 26.7 µM) in assay [1]; 4 µg/mL (≈ 13.4 µM) in [2]; 12 µg/mL (≈ 40.1 µM) in assay [3]; 16 µg/mL (≈ 53.4 µM) in [4]; 8 µg/mL (≈ 26.7 µM) in assay [5]; 16 µg/mL (≈ 53.4 µM) in assay [6]. The MIC in assay [7] was determined as 24 µg/mL (≈ 80.2 µM); in [8] it was 32 µg/mL (≈ 107 µM); in assay [9] it was 16 µg/mL (≈ 53.4 µM); in [10], 16 µg/mL (≈ 53.4 µM); in assay [11], 64 µg/mL (≈ 214 µM); in assay [12] it was 64 µg/mL (≈ 214 µM). Also, the MIC was determined as 8 µg/mL (≈ 26.7 µM) in assay [13]; 64 µg/mL (≈ 214 µM) in assay [14]; 64 µg/mL (≈ 214 µM) in [15]; 64 µg/mL (≈ 214 µM) in [16]; 16 µg/mL (≈ 53.4 µM) in assay [17]; 16 µg/mL (≈ 53.4 µM) in [18]. In addition, the MIC in [19] was determined as 16 µg/mL (≈ 53.4 µM); in [20], 64 µg/mL (≈ 214 µM).
As for `C[C@@H](O)[C@H]1C(=O)N2C(C(=O)O)=C(S[C@@H]3CN[C@H](C(=O)N(C)C)C3)[C@H](C)[C@H]12` [MEROPENEM], the MIC in [1] amounted to 8 µg/mL (≈ 20.9 µM); in assay [2], 4 µg/mL (≈ 10.4 µM); in [3], 12 µg/mL (≈ 31.3 µM); in [4] it was 16 µg/mL (≈ 41.7 µM); in assay [5] it was 8 µg/mL (≈ 20.9 µM); in assay [6], 16 µg/mL (≈ 41.7 µM). Further, the minimal inhibitory concentration (MIC) in assay [7] stood at 24 µg/mL (≈ 62.6 µM); in assay [8], 32 µg/mL (≈ 83.4 µM); in [9] it was 16 µg/mL (≈ 41.7 µM); in assay [10] it was 16 µg/mL (≈ 41.7 µM); in assay [11], 64 µg/mL (≈ 167 µM); in assay [12] it was 64 µg/mL (≈ 167 µM). In addition, the MIC is 8 µg/mL (≈ 20.9 µM) in assay [13]; 64 µg/mL (≈ 167 µM) in assay [14]; 64 µg/mL (≈ 167 µM) in assay [15]; 64 µg/mL (≈ 167 µM) in assay [16]; 16 µg/mL (≈ 41.7 µM) in assay [17]; 16 µg/mL (≈ 41.7 µM) in [18]. Further, the MIC was determined as 16 µg/mL (≈ 41.7 µM) in [19] and 64 µg/mL (≈ 167 µM) in [20].
